In patent publication US20150224190A1, “Combination of a phosphoinositide 3-kinase inhibitor and an inhibitor of the IL-8/CXCR interaction” (priority 2012, published 2015):

How the values were obtained:
JAK2/STAT5 = JAK2/STAT5 phosphorylation in breast cancer cell lines (pJAK2 ELISA, pSTAT5 immunoblot); type: cell-based, human; conditions: for JAK2 activation, starting at (time of treatment): in vitro, time after adding the compound
Protocol: MDA231, lung metastatic subline MDA231 LM2 (Minn et al., 2005) and SUM159 human breast cancer cells, as well as the Balb/c tumor-derived mammary cancer lines 4T-1 and 168FARN (Aslakson and Miller, 1992), were propagated as previously described. All other cell lines were obtained from and were cultured according to the protocols of ATCC. For treatment with inhibitors, cells were synchronized without serum overnight and then supplemented with culture medium containing the inhibitor(s). For experiments with doxycycline-inducible shRNAs, 500 ng/ml of doxycycline (Sigma) was added to the medium and experiments performed 48 h later. Cell viability assays, cell cycle and cell death measurements were performed at 0.5% FCS in order to avoid masking effects of growth factors present under full-serum conditions.
Cells for Western Blotting and ELISA were lysed with RIPA buffer. Xenograft lysates were prepared by lysing kryo-homogenized tumor powder in RIPA buffer (50 mM Tris-HCl pH 8, 150 mM NaCl, 1% NP-40, 0.5% sodium deoxycholate, 0.1% SDS. RIPA was supplemented with 1× protease inhibitor cocktail (Complete Mini, Roche), 0.2 mmol/L sodium-vanadate, 20 mM sodium fluoride and 1 mmol/L phenylmethylsulfonyl fluoride. For IRS-1 immunoprecipitation, cell lysates containing 500-1000 μg of protein were incubated with 1 μg of antibody and 20-50 μl of protein A-Sepharose beads (Zymed Laboratories, Inc., South San Francisco, Calif.) overnight at 4° C. Immunoprecipitates or whole cell lysates (30-80 μg) were subjected to SDS-PAGE, transferred to PVDF membranes (Immobilon-P, Millipore) and blocked for 1 hr at room temperature with 5% milk in PBS-0.1% Tween 20. Membranes were then incubated overnight with antibodies as indicated and exposed to secondary HRP-coupled anti-mouse or -rabbit antibody at 1:5-10,000 for 1 h at room temperature. Proteins were visualized using an ECL kit (Amersham) or an enhanced chemiluminescence detection system (Pierce Biotechnology). In each of the studies presented, the results shown are typical of at least three independent experiments. The following antibodies were used: anti-JAK2 (Cell Signaling), anti-JAK1 (Cell Signaling), anti-pSTAT5 (Tyr694, Cell Signaling), anti-STAT5 (STAT5A&B, Cell Signaling), anti-STAT3 (Cell Signaling), anti-pSTAT3 (Tyr705, Cell Signaling), anti-AKT pan (Cell Signaling), anti-pAKT (Thr308 and Ser473, Cell Signaling), anti-ERK2 (Santa Cruz), anti-S6 (Cell Signaling), anti-pS6 (Ser235/236, Cell Signaling), anti-PARP (Cell Signaling), anti-MCL1 (Cell Signaling), anti-BIM (EL, L and S isoforms, Cell Signaling), anti-pIGF1R/plnsR (Invitrogen), anti-IGF1Rbeta (Cell Signaling), anti-InsRbeta (Santa Cruz), anti-IRS1 (Upstate), anti-plRS1 (Tyr612, Calbiochem).
For assessing pJAK2 levels, an ELISA assay (Tyr1007/1008, Invitrogen) was applied because of cross-reactivity of all pJAK2 antibodies tested. Interleukin-8 levels in RIPA lysates, cell culture supernatants and mouse tail vein blood plasma were measured by ELISA, as well (Biolegend). […]
The present inventors applied single doses of COMPOUND A, a dual PI3K and mTOR inhibitor, and analyzed target inhibition and potential signaling pathway crosstalks after 2, 4, 8 and 20 h hours of treatment. […] While RAD001 readily activated JAK2 starting at 4 hours of treatment, they observed a later response with BKM120 treatment starting at 8 hours after adding the compound. […]

MDA231 LM2 cells = experiment: Matrigel Boyden chamber invasion assay; type: cell-based, human; conditions: 300 nM BEZ235, 350 nM NVP-BSK805, CXCR1 blocking antibody; 48 h; normalized to cell number
Protocol: FIG. 2. Blockade of CXCR1 reduces invasion and has minor effects on primary tumor growth (A) NVP-BSK805 and CXCR1 blockade but not BEZ235 decrease invasion. Bar graphs showing relative invasion of MDA231 LM2 cells seeded on Matrigel coated Boyden invasion chambers and treated with 300 nM BEZ235, 350 nM NVP-BSK805, a JKA2 inhibitor, and/or CXCR1 blocking antibody. Invasion was assessed after 48 h, data represent relative invasion values normalized to cell number and are means±SEM (n=4, *P<0.05).
Cytokine stimulation of cells was performed for 30 min in medium with 0.5% FCS supplemented with cytokines at 10 ng/ml, except for EPO at 10 U/ml. Antibody-blocking experiments were performed by adding anti-CXCR1 (R&D, MAB330, 1 μg/ml), anti-CXCR2 (R&D, MAB331, 2.5 μg/ml) or a mouse IgG antibody (R&D, 1 μg/ml) to the medium 45 min prior to lysis of the cells. Cell viability was measured using the Cell Proliferation Reagent WST-1 (Roche). Colony formation assays were performed by seeding 1000 cells/well in 6-well plates and staining single colonies after 7-14 days with 0.2% crystal violet in PBS/4% formalin. […] The number of invading cells in each treatment condition was counted 48 h after seeding by microscopy at 40× (using the mean of 4 microscopic fields) and normalized to cell number.

SMILES | JAK2 activation, starting at (time of treatment) (JAK2/STAT5) [h] | upregulation of pSTAT5 by BEZ235 (JAK2/STAT5; JAK2 inhibitor together with BEZ235) | relative invasion (MDA231 LM2 cells)
Nc1cc(C(F)(F)F)c(-c2cc(N3CCOCC3)nc(N3CCOCC3)n2)cn1 [COMPOUND C, 5-(2,6-di-morpholin-4-yl-pyrimidin-4-yl)-4-trifluoromethyl-pyridin-2-ylamine] | 8 |  | 
Fc1cc(-c2cccc3ncc(-c4cnn(C5CCNCC5)c4)nc23)cc(F)c1CN1CCOCC1 [NVP-BSK805, reference compound] |  | counteracted | decrease
CO[C@H]1C[C@@H]2CC[C@@H](C)[C@@](O)(O2)C(=O)C(=O)N2CCCC[C@H]2C(=O)O[C@H]([C@H](C)C[C@@H]2CC[C@@H](OCCO)[C@H](OC)C2)CC(=O)[C@H](C)/C=C(\C)[C@@H](O)[C@@H](OC)C(=O)[C@H](C)C[C@H](C)/C=C/C=C/C=C/1C [RAD001, reference compound] | 4 |  | 
